In patent publication US8993574B2, “Pyrrole antifungal agents” (F2G Ltd, priority 2008, dated 2015):
Converted amounts (≈) assume the structure as drawn.

What was measured:
Type in all cases: cell-based
[1] = tested on: Aspergillus terreus AT49; test: MIC, RPMI medium; conditions: for MIC: Aspergillus terreus, AT49, MIC banded into grades, read-out: MIC grade, A. terreus 49; for MIC grade, A. terreus 49: MIC banded into grades
Method in brief: (§1)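 Broth microdilution in RPMI medium with 2% glucose and 0.135 M MOPS (pH 7.0); compounds as doubling dilutions over 50-0.05 mg/L, inoculum 1−2×10^4 cfu/mL. Plates incubated 24-48 h at 35° C; OD 485 nm read, MIC being lowest concentration giving >80% growth inhibition versus drug-free control.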

[2] = tested on: Candida parapsilosis; test: MIC, RPMI medium; conditions: 24-48 h at 35° C., >80% growth inhibition, banded into grades; for MIC: Lodderomyces parapsilosis
Method in brief: as §1

[3] = tested on: Candida albicans; test: MIC, RPMI medium; conditions: 24-48 h at 35° C., >80% growth inhibition, banded into grades; for MIC: Candida albicans
Method in brief: as §1

[4] = tested on: Candida tropicalis; test: MIC, RPMI medium; conditions: 24-48 h at 35° C., >80% growth inhibition, banded into grades; for MIC: Candida tropicalis
Method in brief: as §1

[5] = tested on: Candida krusei; test: MIC, RPMI medium; conditions: 24-48 h at 35° C., >80% growth inhibition, banded into grades; for MIC: Pichia kudriavzevii
Method in brief: as §1

[6] = tested on: Candida glabrata; test: MIC, RPMI medium; conditions: 24-48 h at 35° C., >80% growth inhibition, banded into grades; for MIC: Nakaseomyces glabratus
Method in brief: as §1

[7] = tested on: Aspergillus fumigatus AF293; test: MIC, RPMI medium; conditions: for MIC: Aspergillus fumigatus, AF293, MIC banded into grades, read-out: MIC grade, A. fumigatus; for MIC grade, A. fumigatus: MIC banded into grades
Method in brief: as §1

[8] = tested on: Aspergillus fumigatus AF210; test: MIC, RPMI medium; conditions: for MIC: Aspergillus fumigatus, AF210, MIC banded into grades, read-out: MIC grade, A. fumigatus 210; for MIC grade, A. fumigatus 210: MIC banded into grades
Method in brief: as §1

[9] = tested on: Aspergillus niger; test: MIC, RPMI medium; conditions: MIC banded into grades; for MIC: Aspergillus niger, read-out: MIC grade, A. niger
Method in brief: as §1

[10] = tested on: Aspergillus flavus; test: MIC, RPMI medium; conditions: MIC banded into grades; for MIC: Aspergillus flavus, read-out: MIC grade, A. flavus
Method in brief: as §1

[11] = tested on: Aspergillus terreus AT4; test: MIC, RPMI medium; conditions: for MIC: Aspergillus terreus, AT4, MIC banded into grades, read-out: MIC grade, A. terreus; for MIC grade, A. terreus: MIC banded into grades
Method in brief: as §1

[12] = tested on: Aspergillus terreus AT49; test: MIC, YAG medium; conditions: 24 h at 35° C, MIC banded into grades; for MIC: Aspergillus terreus, read-out: MIC grade, A. terreus 49
Method in brief: (§2)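 DMSO stocks diluted in water as doubling series; spore suspension in YAG (glucose, NH4Cl, yeast extract) added to give 1−2×10^4 cfu/mL. 35° C, 24 h. Growth by OD485; MIC at >70% inhibition, mg/L.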

[13] = tested on: Aspergillus fumigatus AF293; test: MIC, YAG medium; conditions: 24 h at 35° C, MIC banded into grades; for MIC: Aspergillus fumigatus, read-out: MIC grade, A. fumigatus
Method in brief: as §2

[14] = tested on: Aspergillus fumigatus AF210; test: MIC, YAG medium; conditions: 24 h at 35° C, MIC banded into grades; for MIC: Aspergillus fumigatus, read-out: MIC grade, A. fumigatus 210
Method in brief: as §2

[15] = tested on: Aspergillus niger; test: MIC, YAG medium; conditions: 24 h at 35° C, MIC banded into grades; for MIC: Aspergillus niger, read-out: MIC grade, A. niger
Method in brief: as §2

[16] = tested on: Aspergillus flavus; test: MIC, YAG medium; conditions: 24 h at 35° C, MIC banded into grades; for MIC: Aspergillus flavus, 24 h, read-out: MIC grade, A. flavus
Method in brief: as §2

[17] = tested on: Aspergillus terreus AT4; test: MIC, YAG medium; conditions: 24 h at 35° C, MIC banded into grades; for MIC: Aspergillus terreus, read-out: MIC grade, A. terreus
Method in brief: as §2

Row | SMILES | MIC [1] | MIC [7] | MIC [8] | MIC [9] | MIC [10] | MIC [11] | MIC [12] | MIC [13] | MIC [14] | MIC [15] | MIC [16] | MIC [17] | MIC grade, A. terreus 49 [1] | Candida MIC, C. parapsilosis [2] | Candida MIC, C. albicans [3] | Candida MIC, C. tropicalis [4] | Candida MIC, C. krusei [5] | Candida MIC, C. glabrata [6] | MIC grade, A. fumigatus [7] | MIC grade, A. fumigatus 210 [8] | other results
1 | CNC(=O)Cn1ccc(-c2ccccc2)c1C(=O)C(=O)Nc1ccc(N2CCN(c3cc(C)cc(C)n3)CC2)cc1 [Example 76, N-{4-[4-(4,6-Dimethyl-pyridin-2-yl)-piperazin-1-yl]-phenyl}-2-(1-methylcarbamoylmethyl-3-phenyl-1H-pyrrol-2-yl)-2-oxo-acetamide] | > 10 µg/mL | > 10 µg/mL | 1 to 10 µg/mL (≈ 1.82 to 18.2 µM) | > 10 µg/mL | > 10 µg/mL | > 10 µg/mL | > 10 µg/mL | 1 to 10 µg/mL (≈ 1.82 to 18.2 µM) | 1 to 10 µg/mL (≈ 1.82 to 18.2 µM) | > 10 µg/mL | > 10 µg/mL | > 10 µg/mL | – | – | – | – | – | – | – | – | MIC [2]: < 1 µg/mL; MIC [3]: < 1 µg/mL; MIC [4]: < 1 µg/mL; MIC [5]: < 1 µg/mL; MIC [6]: < 1 µg/mL
2 | COCCn1c(C)cc(-c2ccccc2)c1C(=O)C(=O)Nc1ccccc1 [Example 60, 2-[1-(2-Methoxy-ethyl)-5-methyl-3-phenyl-1H-pyrrol-2-yl]-2-oxo-N-phenyl-1-acetamide] | – | – | – | – | – | – | – | – | – | – | – | – | 1 (a grade of 1 represents an MIC of greater than 10 mg/L) | 3 (A grade of 3 represents an MIC of less than 1 mg/L) | 3 (A grade of 3 represents an MIC of less than 1 mg/L) | 2 (A grade of 2 represents an MIC of from 1 to 10 mg/L) | 3 (A grade of 3 represents an MIC of less than 1 mg/L) | 3 (A grade of 3 represents an MIC of less than 1 mg/L) | 2 (A grade of 2 represents an MIC of from 1 to 10 mg/L) | 2 (A grade of 2 represents an MIC of from 1 to 10 mg/L) | MIC grade, A. niger [9]: 2 (A grade of 2 represents an MIC of from 1 to 10 mg/L); MIC grade, A. flavus [10]: 1 (a grade of 1 represents an MIC of greater than 10 mg/L); MIC grade, A. terreus [11]: 1 (a grade of 1 represents an MIC of greater than 10 mg/L); MIC grade, A. terreus 49 [12]: 2 (A grade of 2 represents an MIC of from 1 to 10 mg/L); MIC grade, A. fumigatus [13]: 2 (A grade of 2 represents an MIC of from 1 to 10 mg/L); MIC grade, A. fumigatus 210 [14]: 2 (A grade of 2 represents an MIC of from 1 to 10 mg/L); MIC grade, A. niger [15]: 2 (A grade of 2 represents an MIC of from 1 to 10 mg/L); MIC grade, A. flavus [16]: 1 (a grade of 1 represents an MIC of greater than 10 mg/L); MIC grade, A. terreus [17]: 2 (A grade of 2 represents an MIC of from 1 to 10 mg/L)
3 | CCOC(=O)Cn1c(C)cc(-c2ccccc2)c1C(=O)C(=O)Nc1ccc(N2CCN(c3cc(C)cc(C)n3)CC2)cc1 [Example 69, (2-{4-[4-(4,6-Dimethyl-pyridin-2-yl)-piperazin-1-yl]-phenylaminooxalyl}-5-methyl-3-phenyl-pyrrol-1-yl)-acetic acid ethyl ester] | – | – | – | – | – | – | – | – | – | – | – | – | 2 (A grade of 2 represents an MIC of from 1 to 10 mg/L) | 3 (A grade of 3 represents an MIC of less than 1 mg/L) | 2 (A grade of 2 represents an MIC of from 1 to 10 mg/L) | 3 (A grade of 3 represents an MIC of less than 1 mg/L) | 2 (A grade of 2 represents an MIC of from 1 to 10 mg/L) | 3 (A grade of 3 represents an MIC of less than 1 mg/L) | 3 (A grade of 3 represents an MIC of less than 1 mg/L) | 3 (A grade of 3 represents an MIC of less than 1 mg/L) | MIC grade, A. niger [9]: 3 (A grade of 3 represents an MIC of less than 1 mg/L); MIC grade, A. flavus [10]: 1 (a grade of 1 represents an MIC of greater than 10 mg/L); MIC grade, A. terreus [11]: 2 (A grade of 2 represents an MIC of from 1 to 10 mg/L); MIC grade, A. terreus 49 [12]: 3 (A grade of 3 represents an MIC of less than 1 mg/L); MIC grade, A. fumigatus [13]: 3 (A grade of 3 represents an MIC of less than 1 mg/L); MIC grade, A. fumigatus 210 [14]: 3 (A grade of 3 represents an MIC of less than 1 mg/L); MIC grade, A. niger [15]: 3 (A grade of 3 represents an MIC of less than 1 mg/L); MIC grade, A. flavus [16]: 2 (A grade of 2 represents an MIC of from 1 to 10 mg/L); MIC grade, A. terreus [17]: 3 (A grade of 3 represents an MIC of less than 1 mg/L)
4 | COC(=O)Cn1ccc(-c2cccs2)c1C(=O)C(=O)Nc1ccc(N2CCN(c3cc(C)cc(C)n3)CC2)cc1 [Example 87, (2-{4-[4-(4,6-Dimethyl-pyridin-2-yl)-piperazin-1-yl]-phenylaminooxalyl}-3-thiophen-2-yl-pyrrol-1-yl)-acetic acid methyl ester] | – | – | – | – | – | – | – | – | – | – | – | – | 2 (A grade of 2 represents an MIC of from 1 to 10 mg/L) | 3 (A grade of 3 represents an MIC of less than 1 mg/L) | 2 (A grade of 2 represents an MIC of from 1 to 10 mg/L) | 3 (A grade of 3 represents an MIC of less than 1 mg/L) | 2 (A grade of 2 represents an MIC of from 1 to 10 mg/L) | 3 (A grade of 3 represents an MIC of less than 1 mg/L) | 3 (A grade of 3 represents an MIC of less than 1 mg/L) | 3 (A grade of 3 represents an MIC of less than 1 mg/L) | MIC grade, A. niger [9]: 3 (A grade of 3 represents an MIC of less than 1 mg/L); MIC grade, A. flavus [10]: 1 (a grade of 1 represents an MIC of greater than 10 mg/L); MIC grade, A. terreus [11]: 2 (A grade of 2 represents an MIC of from 1 to 10 mg/L); MIC grade, A. terreus 49 [12]: 3 (A grade of 3 represents an MIC of less than 1 mg/L); MIC grade, A. fumigatus [13]: 3 (A grade of 3 represents an MIC of less than 1 mg/L); MIC grade, A. fumigatus 210 [14]: 3 (A grade of 3 represents an MIC of less than 1 mg/L); MIC grade, A. niger [15]: 3 (A grade of 3 represents an MIC of less than 1 mg/L); MIC grade, A. flavus [16]: 1 (a grade of 1 represents an MIC of greater than 10 mg/L); MIC grade, A. terreus [17]: 2 (A grade of 2 represents an MIC of from 1 to 10 mg/L)
5 | C=C(C)CN1CCN(c2ccc(NC(=O)C(=O)c3c(-c4ccccc4)cc(C)n3CCOC)c(F)c2)CC1 [Example 109, N-{2-Fluoro-4-[4-(2-methyl-allyl)-piperazin-1-yl]-phenyl}-2-[1-(2-methoxy-ethyl)-5-methyl-3-phenyl-1H-pyrrol-2-yl]-2-oxo-acetamide] | < 1 µg/mL | < 1 µg/mL | < 1 µg/mL | < 1 µg/mL | < 1 µg/mL | < 1 µg/mL | < 1 µg/mL | < 1 µg/mL | < 1 µg/mL | < 1 µg/mL | < 1 µg/mL | < 1 µg/mL | – | – | – | – | – | – | – | – | MIC [2]: < 1 µg/mL; MIC [3]: < 1 µg/mL; MIC [4]: 1 to 10 µg/mL (≈ 1.93 to 19.3 µM); MIC [5]: < 1 µg/mL; MIC [6]: < 1 µg/mL
6 | Cc1cc(-c2ccccc2)c(C(=O)C(=O)Nc2ccc(N3CCN(c4ccccn4)CC3)cc2)n1C [Example 38, 2-(1,5-Dimethyl-3-phenyl-1H-pyrrol-2-yl)-2-oxo-N-[4-(4-pyridin-2-yl-piperazin-1-yl)-phenyl]-acetamide] | < 1 µg/mL | < 1 µg/mL | < 1 µg/mL | < 1 µg/mL | < 1 µg/mL | < 1 µg/mL | < 1 µg/mL | < 1 µg/mL | < 1 µg/mL | < 1 µg/mL | < 1 µg/mL | < 1 µg/mL | – | – | – | – | – | – | – | – | –
